Common to all, as to experiment: Minimal inhibitory concentration (MIC), NCCLS M7-A5 procedure
Type in all cases: cell-based

Experiment [1] relates to Escherichia coli ATCC25922. Conditions: read-out: Minimal inhibitory concentration (MIC) EC 25922. On the procedure:
(§1) Minimal inhibitory concentrations (MIC) were determined in accordance with the National Committee for Clinical Laboratory Standards (NCCLS) procedure [M7-A5, 2001].
(§2) The results obtained are summarized in table 1 and are expressed in jig/ml. In this table 1, EC 25922 means Escherichia coli ATCC25922, EC DC2 means Escherichia coli DC2, SA 25923 means Staphylococcus aureus ATCC25923 and SA 101 means Staphylococcus aureus 101. (ATCC=American Type Culture Collection)
(§3) M7-A5* (2001): Methods for Dilution Antimicrobial Susceptibility Tests for Bacteria that Grow Aerobically; Approved Standard—Fifth Edition American National Standard.

The next experiment concerns Escherichia coli DC2. Conditions: read-out: Minimal inhibitory concentration (MIC) EC DC2. On the procedure:
as §1, §2, §3

Experiment [2] concerns Staphylococcus aureus 101. Conditions: read-out: Minimal inhibitory concentration (MIC) SA 101. On the procedure: as §1, §2, §3
The test system of experiment [3] is Staphylococcus aureus ATCC25923. Conditions: read-out: Minimal inhibitory concentration (MIC) SA 25923. On the procedure:
as §1, §2, §3

SMILES strings stand for the structures. Values after ≈ are worked out from the molar mass of the structure shown.

For `Oc1cc2c(cc1O)CC(c1ccc(Oc3ccccc3)cc1)NC2` (stereo not shown) [Example 1, 3-(4-Phenoxy-phenyl)-1,2,3,4-tetrahydro-isoquinoline-6,7-diol], the MIC was found to be 32 µg/mL (≈ 96 µM) in experiment [1], 8 µg/mL (≈ 24 µM) with Escherichia coli DC2, 8 µg/mL (≈ 24 µM) in experiment [2] and 8 µg/mL (≈ 24 µM) in experiment [3].
Regarding `Oc1cc2c(cc1O)CN(Cc1ccccc1)C(c1ccc(Oc3ccccc3)cc1)C2` (stereo not shown) [Example 2, 2-Benzyl-3-(4-phenoxy-phenyl)-1,2,3,4-tetrahydro-isoquinoline-6,7-diol], the MIC is above 128 µg/mL in experiment [1], 64 µg/mL (≈ 151 µM) in the experiment with Escherichia coli DC2, 32 µg/mL (≈ 75.6 µM) in experiment [2] and 64 µg/mL (≈ 151 µM) in experiment [3].
On to `CC1NC(c2ccc(Oc3ccccc3)cc2)Cc2cc(O)c(O)cc21` (stereo not shown) [Example 3, 1-Methyl-3-(4-phenoxy-phenyl)-1,2,3,4-tetrahydro-isoquinoline-6,7-diol], for which the figures for the MIC (in the experiment on Escherichia coli DC2; in experiment [3]) were 32 µg/mL (≈ 92.1 µM) and 16 µg/mL (≈ 46.1 µM), respectively.
Take `COc1ccc(C2Cc3cc(O)c(O)cc3CN2)c2ccccc12` (stereo not shown) [Example 4, 3-(4-Methoxy-naphthalen-1-yl)-1,2,3,4-tetrahydro-isoquinoline-6,7-diol]: the MIC (in the experiment with Escherichia coli DC2; in experiment [3]) was 32 µg/mL (≈ 99.6 µM) throughout.
Consider `Oc1cc2c(cc1O)CC(c1ccc(O)c3ccccc13)NC2` (stereo not shown) [Example 5, 3-(4-Hydroxy-naphthalen-1-yl)-1,2,3,4-tetrahydro-isoquinoline-6,7-diol], for which the MIC in the experiment on Escherichia coli DC2 was found to be 16 µg/mL (≈ 52.1 µM); in experiment [3] it was 32 µg/mL (≈ 104 µM).
As to `OCC1Cc2cc(O)c(O)cc2CN1` (stereo not shown) [Example 6, 3-Hydroxymethyl-1,2,3,4-tetrahydro-isoquinoline-6,7-diol], the MIC in experiment [1] turned out to be 64 µg/mL (≈ 328 µM); with Escherichia coli DC2, 32 µg/mL (≈ 164 µM); in experiment [2], 16 µg/mL (≈ 82 µM); in experiment [3], 16 µg/mL (≈ 82 µM).
Consider `Oc1cc2c(cc1O)CC(c1ccc3oc4ccccc4c3c1)NC2` (stereo not shown) [Example 7, 3-Dibenzofuran-2-yl-1,2,3,4-tetrahydro-isoquinoline-6,7-diol], for which the MIC in experiment [1] turned out to be 64 µg/mL (≈ 193 µM); in the experiment on Escherichia coli DC2, 32 µg/mL (≈ 96.6 µM); in experiment [2], 16 µg/mL (≈ 48.3 µM); in experiment [3], 8 µg/mL (≈ 24.1 µM).
On to `Oc1cc2c(cc1O)CC(c1ccc(Sc3ccccc3)cc1)NC2` (stereo not shown) [Example 8, 3-(4-Phenylsulfanyl-phenyl)-1,2,3,4-tetrahydro-isoquinoline-6,7-diol], for which the MIC came out at 64 µg/mL (≈ 183 µM) in experiment [1], 32 µg/mL (≈ 91.6 µM) with Escherichia coli DC2, 32 µg/mL (≈ 91.6 µM) in experiment [2] and 8 µg/mL (≈ 22.9 µM) in experiment [3].
Regarding `Oc1cc2c(cc1O)CC(c1ccc(Cl)cc1Cl)NC2` (stereo not shown) [Example 9, 3-(2,4-Dichloro-phenyl)-1,2,3,4-tetrahydro-isoquinoline-6,7-diol], the MIC in experiment [1] stood at 128 µg/mL (≈ 413 µM); in the experiment with Escherichia coli DC2, 64 µg/mL (≈ 206 µM); in experiment [2], 64 µg/mL (≈ 206 µM); in experiment [3], 64 µg/mL (≈ 206 µM).
Turning to `Oc1cc2c(cc1O)CC(COc1ccc(Cl)cc1Cl)NC2` (stereo not shown) [Example 10, 3-(2,4-Dichloro-phenoxymethyl)-1,2,3,4-tetrahydro-isoquinoline-6,7-diol], the MIC in experiment [1] is 128 µg/mL (≈ 376 µM); in the experiment with Escherichia coli DC2, 2 µg/mL (≈ 5.88 µM); in experiment [2] it was 16 µg/mL (≈ 47 µM); in experiment [3], 8 µg/mL (≈ 23.5 µM).
`Oc1cc2c(cc1O)CN(Cc1ccccc1)C(COc1ccc(Cl)cc1Cl)C2` (stereo not shown) [Example 11, 2-Benzyl-3-(2,4-dichloro-phenoxymethyl)-1,2,3,4-tetrahydro-isoquinoline-6,7-diol]: the MIC in experiment [1] was above 128 µg/mL; with Escherichia coli DC2, above 128 µg/mL; in experiment [2], 8 µg/mL (≈ 18.6 µM); in experiment [3], 8 µg/mL (≈ 18.6 µM).
Regarding `Oc1cc2c(cc1O)CC(c1ccc(-c3ccccc3)cc1)NC2` (stereo not shown) [Example 12, 3-Biphenyl-4-yl-1,2,3,4-tetrahydro-isoquinoline-6,7-diol], the MIC was found to be 16 µg/mL (≈ 50.4 µM) in experiment [1], 8 µg/mL (≈ 25.2 µM) with Escherichia coli DC2, 16 µg/mL (≈ 50.4 µM) in experiment [2] and 4 µg/mL (≈ 12.6 µM) in experiment [3].
Turning to `Oc1cc2c(cc1O)CC(COc1ccc(Cl)c(Cl)c1)NC2` (stereo not shown) [Example 13, 3-(3,4-Dichloro-phenoxymethyl)-1,2,3,4-tetrahydro-isoquinoline-6,7-diol], the MIC in experiment [1] was above 128 µg/mL; in the experiment with Escherichia coli DC2, 16 µg/mL (≈ 47 µM); in experiment [2] it was 16 µg/mL (≈ 47 µM); in experiment [3] it was 16 µg/mL (≈ 47 µM).
As for `Oc1cc2c(cc1O)CC(COc1cc(Cl)ccc1Cl)NC2` (stereo not shown) [Example 14, 3-(2,5-Dichloro-phenoxymethyl)-1,2,3,4-tetrahydro-isoquinoline-6,7-diol], the MIC amounted to 128 µg/mL (≈ 376 µM) in experiment [1], 32 µg/mL (≈ 94.1 µM) with Escherichia coli DC2, 64 µg/mL (≈ 188 µM) in experiment [2] and 64 µg/mL (≈ 188 µM) in experiment [3].
Take `Oc1cc2c(cc1O)CC(c1ccc(Cl)cc1)NC2` (stereo not shown) [Example 15, 3-(4-Chloro-phenyl)-1,2,3,4-tetrahydro-isoquinoline-6,7-diol]: the MIC in experiment [1] turned out to be 128 µg/mL (≈ 464 µM); in the experiment with Escherichia coli DC2, 32 µg/mL (≈ 116 µM); in experiment [2] it was 32 µg/mL (≈ 116 µM); in experiment [3], 16 µg/mL (≈ 58 µM).
With `Oc1cc2c(cc1O)CC(c1ccc(Br)cc1)NC2` (stereo not shown) [Example 16, 3-(4-Bromo-phenyl)-1,2,3,4-tetrahydro-isoquinoline-6,7-diol], the MIC in experiment [1] was above 128 µg/mL; in the experiment on Escherichia coli DC2, 32 µg/mL (≈ 99.9 µM); in experiment [2], 64 µg/mL (≈ 200 µM); in experiment [3], 8 µg/mL (≈ 25 µM).
Taken in the same sequence, the figures for `Oc1cc2c(cc1O)CC(c1ccc(-c3ccc(C(F)(F)F)cc3)cc1)NC2` (stereo not shown) [Example 17, 3-(4′-Trifluoromethyl-biphenyl-4-yl)-1,2,3,4-tetrahydro-isoquinoline-6,7-diol] were 64 µg/mL (≈ 166 µM), 8 µg/mL (≈ 20.8 µM), 8 µg/mL (≈ 20.8 µM) and 4 µg/mL (≈ 10.4 µM).
In the case of `CN(C)c1ccc(-c2ccc(C3Cc4cc(O)c(O)cc4CN3)cc2)cc1` (stereo not shown) [Example 18, 3-(4′-Dimethylamino-biphenyl-4-yl)-1,2,3,4-tetrahydro-isoquinoline-6,7-diol], the MIC in experiment [1] is above 128 µg/mL; with Escherichia coli DC2, 8 µg/mL (≈ 22.2 µM); in experiment [2] it was 16 µg/mL (≈ 44.4 µM); in experiment [3], 4 µg/mL (≈ 11.1 µM).
Turning to `Oc1ccc(-c2ccc(C3Cc4cc(O)c(O)cc4CN3)cc2)cc1` (stereo not shown) [Example 19, 3-(4′-Hydroxy-biphenyl-4-yl)-1,2,3,4-tetrahydro-isoquinoline-6,7-diol], the MIC in experiment [1] was above 128 µg/mL; with Escherichia coli DC2, 64 µg/mL (≈ 192 µM); in experiment [2] it was 128 µg/mL (≈ 384 µM); in experiment [3] it was 128 µg/mL (≈ 384 µM).
As to `Oc1cc2c(cc1O)CC(c1ccc(-c3ccccc3O)cc1)NC2` (stereo not shown) [Example 20, 3-(2′-Hydroxy-biphenyl-4-yl)-1,2,3,4-tetrahydro-isoquinoline-6,7-diol], the MIC was found to be 128 µg/mL (≈ 384 µM) in experiment [1], 32 µg/mL (≈ 96 µM) with Escherichia coli DC2, 32 µg/mL (≈ 96 µM) in experiment [2] and 16 µg/mL (≈ 48 µM) in experiment [3].
Consider `Oc1cc2c(cc1O)CC(c1ccc(-c3ccc(F)cc3F)cc1)NC2` (stereo not shown) [Example 21, 3-(2′,4′-Difluoro-biphenyl-4-yl)-1,2,3,4-tetrahydro-isoquinoline-6,7-diol], for which the MIC in experiment [1] turned out to be 32 µg/mL (≈ 90.6 µM); in the experiment on Escherichia coli DC2 it was 8 µg/mL (≈ 22.6 µM); in experiment [2], 8 µg/mL (≈ 22.6 µM); in experiment [3], 8 µg/mL (≈ 22.6 µM).
For `N#Cc1cccc(-c2ccc(C3Cc4cc(O)c(O)cc4CN3)cc2)c1` (stereo not shown) [Example 22, 4′-(6,7-Dihydroxy-1,2,3,4-tetrahydro-isoquinolin-3-yl)-biphenyl-3-carbonitrile], the MIC is above 128 µg/mL in experiment [1], 64 µg/mL (≈ 187 µM) in the experiment on Escherichia coli DC2, above 128 µg/mL in experiment [2] and 128 µg/mL (≈ 374 µM) in experiment [3].

The values are drawn from US7371762B2, “3-substituted 6,7-dihydroxytetrahydroisoquinoline derivatives for use as antibacterial agents” (Arpida AG, priority 2001, dated 2008).
